In patent publication US20260335323A1, “CHIMERIC MOLECULE” (UCL Business Ltd, priority 2023, published 2026):

Experiments:
SH-SY5Y cells = experiment: mito-mKeima mitophagy assay (mitophagy index); type: cell-based, human; settings: mitochondrial toxin treatment
Experimental: FIG. 1. The structure of AUTAC-4 is shown in (A). (B) Representative images of SH-SY5Y cells stably expressing the mito-mKeima reporter treated with AUTAC4 for 18 h. Nuclei were stained with Hoechst 33342, healthy mitochondria are shown in green and mitochondria in lysosomes are shown in red. (C-E) Fold change in mitophagy index over time after treatment with increasing concentrations of AUTAC4 under treatment with DMSO (C), 3 mM CCCP (D) or 0.1/0.1 mM antimycin/oligomycin (E), also for 18 h. (F) Quantification of changes in mitochondrial membrane potential over time (DYm) by measuring the TMRM relative fluorescence intensity (RFI) treated with DMSO, 10 mM CCCP, 10 mM and 20 mM AUTAC4. Normalised to number of nuclei. (G) Representative western blot of SH-SY5Y cells treated with DMSO, 10 mM AUTAC4 or 10 mM AUTAC4+0.1/0.1 mM antimycin/oligomycin for 18 h and, probed for p62, b-actin and Tom20. Quantifications of western blot for changes in Tom20 and p62 levels shown in (H) and (I), respectively. (J) Representative images of PANC-1 cells stably expressing the mCherry-EGFP-LC3 tandem reporter. Nuclei stained with Hoechst 33342, autophagosomes are shown in the EGFP channel and autolysosomes in the mCherry channel. Fold change in the number of autophagosome (K) and autolysosome (L) puncta in AUTAC4 treated cells. All data shown are mean±SEM, n=3, *p<0.05, *** p<0.001. For mito-mKeima experiments, statistics were calculated by Two-way ANOVA with Tukey's multiple comparisons test. For western blots, TMRM and LC3 tandem reporter assay, statistics were calculated with one-way ANOVA with Tukey's multiple comparisons test.
(§1) FIG. 5. ULKTACs induce potent mitophagy after colocalisation and local activation of ULK1 at mitochondria (A) Representative immunofluorescence of PANC-1 cells treated with CCCP, ULKTACs or both and immunostained for TOM20 and ULK1 and counterstained with Alexa 488 and 568, respectively. Nuclei stained with Hoechst 33342. (B) Quantification of the colocalised ULK1 to TOM20 spot area of PANC-1 cells treated with DMSO, 5 mM CCCP, 10 mM BL-918, 10 mM BL-918+5 mM CCCP, […] NZ-65, […] NZ-65+5 mM CCCP, […] NZ-66, […] NZ-66+5 mM CCCP, 50 mM TSPO ligand, […] NZ-65+50 mM TSPO ligand, […] NZ-66+50 mM TSPO ligand. (C) Western blot of SH-SY5Y cells treated with 1 mM ULKTACs, 5 mM CCCP or both, probed for Mfn2, b-Actin and Tom20—quantifications are shown in (D) for Mfn2, normalised to Actin. (E) Representative images of SH-SY5Y cells stably expressing the mito-mKeima reporter treated with 3 mM CCCP, NZ-65 or both. Nuclei were stained with Hoechst 33342, healthy mitochondria are shown in green and mitochondria in lysosomes are shown in red. Fold change in mitophagy index over time after treatment for the indicated timepoints with title treatments alone or co-treated with 1.25 mM ULKTAC or 10 mM ULKTAC NZ-65 (F) or NZ-66 (G). Fold change in mitophagy index over time after treatment for the indicated timepoints with DMSO, 1.25 µM NZ-65 or NZ-66±50 µM TSPO ligand under co-treatment with DMSO (H) or 3 μM CCCP (I). […] Normalised to number of nuclei. All data shown are mean±SEM, n=3, *p<0.05, ** p<0.01, *** p<0.001. For colocalisation and TMRM experiments, one-way ANOVA with Dunnett's multiple comparisons test. For western blots, one-way ANOVA with Tukey's multiple comparisons test and unpaired t-test. For mito-mKeima experiment, two-way ANOVA with Tukey's multiple comparisons test.
SH-SY5Y stably expressing mito-mKeima were produced as previously described28,29. Cells were seeded in 384 well CellCarrier Ultra plates (PerkinElmer) 24 hours before treatment in complete media without phenol red. Cells were treated with increasing concentrations of BL-918, AUTAC4, NZ-65 or NZ-66, 24 hours prior to treatment with increasing concentrations of mitochondrial uncouplers to cause mitochondrial insult. SH-SY5Y mitochondria were treated with DMSO, 3 μM CCCP, 10 μM CCCP, 0.1/0.1 μM antimycin/oligomycin (AO), 0.5/0.5 µM AO or 1/1 μM AO. […]

Mfn2 = experiment: Western blot, Mfn2 degradation in MEF WT; type: cell-based, mouse; settings: with ULKTAC; cells not given
Experimental: FIG. 6. ULKTACs rely on ULK1 for the redirection of autophagy components to mitochondria and subsequent mitophagic degradation (A) Western blot of mouse embryonic fibroblasts (MEF) WT and MEF ULK1/2^−/− treated with 1 mM ULKTACs, 5 mM CCCP or both and probed for ULK1, Mfn2 and Actin—quantification of the relative intensity of Mfn2 shown in (B), normalised to Actin. Representative immunofluorescence of MEF WT (C) and MEF ULK1/2^−/− (D) treated with 5 mM CCCP, 1 mM ULKTACs or both and immunostained for Alexa 488 ATP5a and Alexa 647 LC3B. Quantification of the colocalised LC3 to ATP5a spot area shown in WT vs ULK1/2^−/− treated MEF cells shown in (E). Data shown are mean±SEM, n=3, *p<0.05, ** p<0.01, *** p<0.001, Two-way ANOVA with Tukey's multiple comparisons test.
Cells were homogenised in protein lysis buffer consisting of 0.1 M Tris pH 8.0, 0.1 M NaCl, 5% glycerol, IGEPAL® CA-630 (#18896. Sigma-Aldrich) and 5 mM EDTA, 0.1 M N-ethyl maleimide (ThermoFisher, #23030) and protease inhibitor (Cell Signalling Technologies, #5871). Protein concentrations were determined using the BCA assay to ensure equal loading. […] The membranes were immunoblotted with primary antibodies, overnight at 4° C. ULK1 (D8H5) Rabbit mAb (#0854) [1:1000], Phospho-ULK1 (Ser 317) Rabbit antibody (#37762) [1:1000], LC3B Rabbit antibody (#2775) [1:1000], TOM20 (D8T4N) Rabbit mAb (#42406) [1:1000] and, Phospho-Ubiquitin (Ser 65) (E2J6T) Rabbit mAb (#62082) [1:500] were obtained from Cell Signalling Technologies. Recombinant Anti-Vinculin Rabbit antibody (EPR8185) (#ab129002) [1:5000] and Anti-Mitofusin2 mouse antibody (6A8) (#ab56889) [1:1000] were purchased from Abcam. Anti-Actin mouse monoclonal antibody (#A1978) [1:1000] and Anti-rabbit p62/SQSTM1 (#P0067) [1:1000], were purchased from Sigma-Aldrich. Mono- and polyubiquitinylated conjugates monoclonal antibody (FK2) (BML-PW8810-0100) [1:500] was purchased from Enzo Life Sciences. Anti BRD4 (E2A7X) rabbit monoclonal antibody (#13440), Anti c-MYC (D84C12) rabbit monoclonal antibody (#5605) [1:1000], Anti GAPDH (D4C6R) mouse monoclonal antibody (#97166) [1:1000], Anti Max (S20) rabbit monoclonal antibody (#4739) [1:1000] were purchased from Cell Signalling Technologies. Anti Phospho-CHK1 (Ser 345) rabbit monoclonal antibody (#2341) [1:1000], Anti gamma-H2AX (Ser 139) rabbit monoclonal antibody (#2577) [1:1000] were obtained from Cell Signalling Technologies, Anti RPA32/RPA2 (phospho S4/S8) rabbit monoclonal antibody (ab87277) [1:1000] were obtained from Abcam.
Membranes were then incubated with horseradish peroxidase (HRP)-conjugated secondary antibodies (Rabbit #7074 and Mouse #7076) purchased from Cell Signalling Technologies for 1 hour and the HRP signal was detected using EZ-ECL Enhanced Chemiluminescence Detection Kit for HRP (#20-500-500, Sartorius), and imaged with an Alliance Q9 Advanced (UVITec). Where required, membranes were stripped with mild stripping buffer consisting of 0.2 M glycine, 3.47 mM SDS, 1% Tween 20, pH 2.2, blocked for 1 hour with TBS-T+3% BSA and re-probed with primary antibodies.
Therefore, we conclude that NZ-65 and NZ-66 are novel ULKTAC molecules that initiate the recruitment of ULK1 to mitochondria, leading to an increase in local ULK1 activity, the formation of an autophagosome and mitophagy.

ULK1 = molecular target: T1, ULK1 (Homo sapiens, UniProt O75385); experiment: ULK1/TOM20 co-localisation immunofluorescence in PANC-1 cells; type: cell-based; set-up: pSer317 blot or TOM20 co-localisation; settings: PANC-1, 18 hours, alone
T1 sequence (O75385 1-1050): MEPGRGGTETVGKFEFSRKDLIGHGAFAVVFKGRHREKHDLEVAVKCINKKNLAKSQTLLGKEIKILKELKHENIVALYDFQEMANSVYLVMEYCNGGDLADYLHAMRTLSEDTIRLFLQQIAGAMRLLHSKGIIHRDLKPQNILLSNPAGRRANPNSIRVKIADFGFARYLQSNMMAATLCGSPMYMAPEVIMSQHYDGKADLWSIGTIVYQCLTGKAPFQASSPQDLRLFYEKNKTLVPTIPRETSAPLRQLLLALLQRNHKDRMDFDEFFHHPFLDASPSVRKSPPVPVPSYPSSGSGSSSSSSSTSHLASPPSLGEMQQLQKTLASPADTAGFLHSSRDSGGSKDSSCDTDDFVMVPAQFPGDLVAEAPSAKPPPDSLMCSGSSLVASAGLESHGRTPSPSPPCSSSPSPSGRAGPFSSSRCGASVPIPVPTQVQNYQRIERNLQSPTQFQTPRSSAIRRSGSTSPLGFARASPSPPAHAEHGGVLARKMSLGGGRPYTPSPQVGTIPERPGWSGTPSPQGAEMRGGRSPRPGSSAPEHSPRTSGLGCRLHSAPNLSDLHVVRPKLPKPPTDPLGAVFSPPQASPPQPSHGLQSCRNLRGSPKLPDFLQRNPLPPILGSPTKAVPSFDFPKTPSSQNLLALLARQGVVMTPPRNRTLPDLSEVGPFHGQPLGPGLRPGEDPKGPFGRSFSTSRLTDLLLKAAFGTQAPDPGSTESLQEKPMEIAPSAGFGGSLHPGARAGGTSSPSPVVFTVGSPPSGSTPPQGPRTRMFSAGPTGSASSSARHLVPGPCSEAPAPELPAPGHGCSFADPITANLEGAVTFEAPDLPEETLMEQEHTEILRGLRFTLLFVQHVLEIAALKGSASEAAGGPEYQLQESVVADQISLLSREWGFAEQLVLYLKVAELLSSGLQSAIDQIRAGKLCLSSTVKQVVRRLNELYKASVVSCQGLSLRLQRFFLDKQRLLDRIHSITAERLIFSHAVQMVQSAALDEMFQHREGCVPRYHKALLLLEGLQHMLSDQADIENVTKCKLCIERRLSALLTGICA
Experimental: as §1
For TOM20/ULK1 immunofluorescence, cells were seeded in a 384 well PerkinElmer CellCarrier Ultra plate 24 hours prior to treatment with compounds. Cells were treated for 18 hours after which they were fixed with 4% paraformaldehyde (PFA) in phosphate buffered saline (PBS) and blocked with 10% FBS and 0.1% Triton in PBS. Plates were incubated at 4° C. overnight, with 1:400 mouse anti-TOM20 (Santa Cruz, #sc-17764) and 1:400 rabbit anti-ULK1 (Cell Signalling Technologies, #0854). The following day, plates were incubated with 1:1000 goat anti-mouse Alexa 488 (ThermoFisher Scientific, #A-11029), 1:1000 goat anti-rabbit Alexa 568 (ThermoFisher Scientific, #A-11011) and 1.62 μM Hoechst 33342 at room temperature for 1 hour before imaging. For ATP5a/LC3 immunofluorescence, cells were fixed with ice-cold 1:1 MeOH: acetone and blocked with 3% BSA (Sigma-Aldrich, #A3803) in Dulbecco's PBS (D-PBS). Plates were incubated overnight at 4° C. with 1:400 LC3B (D11) XP Rabbit mAb Alexa Fluor 647 Conjugate (Cell Signalling Technologies, #65299) and 1:400 ATP5a (Cell Signalling Technologies, #18023) lightning-linked to Alexa Fluor 488. The following day, plates were incubated with 1.62 […] at room temperature for 1 hour before imaging. Excitation and emission spectra for each channel are as follows: Hoechst 33342=405/435-480 nm, Alexa 488=488/500-550 nm and Alexa 568=561/570-630 nm. Images were acquired at 40× and 63× magnification with water immersion lens.
To understand the temporal kinetics of NZ-65 and NZ-66, we assessed the recruitment of ULK1 to mitochondria, using co-localisation of ULK1 and TOM20 by immunofluorescence. […] After showing the co-localisation of ULK1 to the outer mitochondrial membrane (OMM) after ULKTAC treatment, we wanted to determine whether the ULKTACs induced mitophagy. To do this, we measured changes in Mfn2 under basal conditions and co-treatment with CCCP (FIG. 5C, D).

For `N#CC(C#N)=NNc1cccc(Cl)c1` [CCCP, reference compound], the induction of mitophagy (SH-SY5Y cells) was “induction of mitophagy”.
For `COc1ccc(Nc2ncc(C(F)(F)F)c(NC3CC3)n2)cc1OC` [SBP-7455, reference compound], the “ULKTAC mediated degradation of Mfn2 in presence of dual ULK1/2 inhibitor” value (Mfn2) was “additionally demonstrating the requirement for ULK1 for ULKTAC mediated degradation of Mfn2”.
In the case of `NC(=O)C(=O)c1c(-c2ccccc2)[nH]c2ccccc12` [TSPO ligand, reference compound], the “co-localisation of ULK1 and TOM20” value (ULK1) is reported as “neither BL-918 nor the TSPO ligand alone induce co-localisation”.
